As a reminder, the EC50 is the concentration giving half of the maximal effect.

Each structure is given as a SMILES string.

The text below walks through data of patent US10556907B2 (AbbVie Inc., priority 2015, dated 2020).

In experiment [1] the target is T1, human EDG8 (S1PR5) receptor (Homo sapiens, UniProt Q9H228).
T1 construct: expressed in transfected cells; host or cells: CHO (clone CHO-A21-EDG8 #12)
In words: Method 2: Aequorin assay, cell clone CHO-A21-EDG8 #12. It counts as cell-based. As to conditions: agonist potency, determined with method 2 (symbols E-G); read-out: S1P5 EC50 range. As for the experimental part: (§1) Agonistic activity was measured using two different methods, described below.
(§2) Genetically Engineered Cells
(§3) Cell clone CHO-A21-Edg1 #17 carries the transgenes human EDG1 (S1PR1) receptor (Accession number NP_001391.2), mitochondrially targeted Aequorin (active part corresponds to accession number 1SL8_A) and chimaeric Gaqi5=Gaq modified with the 5 C-terminal amino-acids replaced with those of the Gai protein (DCGLF). CHO-A2-S1P3 Mix is a cell pool ectopically expressing human EDG3 (S1PR3) receptor (Accession number NP_005217.2) mitochondrially targeted Aequorin (active part has a sequence similar to accession number AY601106.1) and GNA16 (Accession number NP_002059.3). Cell clone CHO-A21-EDG8 #12 carries the transgenes human EDG8 (S1PR5) receptor (Accession number NP_110387.1), mitochondrially expressed Aequorin (active part corresponds to accession number 1SL8_A) and chimaeric Gaqi5 (Gaq modified to present the 5 last amino-acids of the Gai protein “DCGLF”; see above). Cells are grown to mid-log phase in culture medium (HAM's F12, 10% FBS, 100 IU/mL penicillin, 100 μg/mL streptomycin, 250 μg/mL Zeocin, 400 μg/mL G418). 18 hours prior to frozen cells preparation, the medium is changed to remove the antibiotics.
(§4) 18 hours prior to the test, vials of frozen cells are quickly thawed in a 37° C. water bath, cells are recovered by centrifugation and resuspended in assay buffer (DMEM/HAM's F12 with HEPES, without phenol red+0.1% fatty acid-free BSA). Cells are gently agitated in suspension overnight at RT in presence of 5 μM of Coelenterazine h (Molecular Probes). On the day of the test, cells are diluted to their final working concentrations in assay buffer and agitated in suspension for 1 h at RT. Cells are then placed in the luminescence reader (Hamamatsu Functional Drug Screening System 6000, FDSS6000). During cells incubation, compounds are prepared in 100% DMSO, and subsequently diluted in assay buffer. Compounds are then dispensed in the assay plate (black, clear-bottom, 384-well plate). After binding of agonists to the human S1P receptor the intracellular calcium concentration increases and binding of calcium to the Aequorin/Coelenterazine complex leads to an oxidation reaction of coelenterazine, which results in the production of […], coelenteramide, CO2 and light (Dmax 469 nm). The luminescent response is dependent on the agonist concentration. For agonist testing, 30 μL of cell suspension are injected on 30 μL of test compound or reference agonist in the assay plate. The resulting emission of light is recorded for 90 seconds using the FDSS6000. Dose response curves with the reference compounds are performed before testing the compounds. S1P is the reference agonist and JTE-013 the reference antagonist for S1P2. […]
(§5) Luminescence data are integrated over the reading interval for agonist and antagonist modes. To standardize the emission of recorded light (determination of the “100% signal”) across plates and across different experiments, some of the wells contain 100 μM digitonin or a saturating concentration of ATP (20 μM). Plates also contain the reference agonist at a concentration equivalent to the EC80 obtained during the test validation and the EC100. Dose-response data from test compounds were analyzed with XLfit (IDBS) software using nonlinear regression applied to a sigmoidal dose-response model and the following equation: • XL Fit fit Model 203: 4 Parameter Logistic Model • A: Bottom • B: TOP • C: LogEC50 • D: Hill fit=(A+((B−A)/(1+(((10^C)/x)^D)))) inv=((10^C)/((((B−A)/(y−A))−1)^(1/D))) res=(y−fit)

The target in experiment [2] is T2, human EDG3 (S1PR3) receptor (Homo sapiens, UniProt Q99500).
T2 construct: expressed in transfected cells; host or cells: CHO (cell pool CHO-A2-S1P3 Mix)
T2 sequence (Q99500 whole entry): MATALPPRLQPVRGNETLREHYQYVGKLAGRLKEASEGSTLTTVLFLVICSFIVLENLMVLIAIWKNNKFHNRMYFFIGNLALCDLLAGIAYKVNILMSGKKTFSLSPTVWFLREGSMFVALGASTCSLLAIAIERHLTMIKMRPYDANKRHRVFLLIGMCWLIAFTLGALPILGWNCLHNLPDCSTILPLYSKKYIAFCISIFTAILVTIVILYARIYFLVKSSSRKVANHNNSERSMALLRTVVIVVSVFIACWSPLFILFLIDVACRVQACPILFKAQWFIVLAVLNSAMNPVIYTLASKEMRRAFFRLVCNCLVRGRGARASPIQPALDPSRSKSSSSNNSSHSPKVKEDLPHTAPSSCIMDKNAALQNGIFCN
As to the kind of experiment: Method 2: Aequorin assay, cell pool CHO-A2-S1P3 Mix. It counts as cell-based. As to conditions: (2): determined with method 2. How it is done: as §1, §2, §3, §4, §5

Another experiment addresses T3, human S1PR4 receptor (Homo sapiens, UniProt O95977).
T3 construct: host or cells: CHO-K1
T3 sequence (O95977 1-384): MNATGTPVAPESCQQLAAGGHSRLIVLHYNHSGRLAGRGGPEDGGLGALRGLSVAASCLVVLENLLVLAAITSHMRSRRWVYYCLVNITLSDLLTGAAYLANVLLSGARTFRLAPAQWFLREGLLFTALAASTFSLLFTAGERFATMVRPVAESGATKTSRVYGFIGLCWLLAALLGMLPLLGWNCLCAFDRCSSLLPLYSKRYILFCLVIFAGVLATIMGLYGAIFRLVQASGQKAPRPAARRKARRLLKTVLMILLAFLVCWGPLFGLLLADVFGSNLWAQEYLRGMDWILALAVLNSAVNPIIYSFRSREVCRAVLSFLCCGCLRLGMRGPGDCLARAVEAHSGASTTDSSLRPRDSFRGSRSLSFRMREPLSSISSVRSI
In words: Method 1: intracellular Ca2+ release (FLIPR, Calcium 5) in recombinant CHO-K1 cells. The class given is cell-based. As to conditions: (1): determined with method 1; read-out: S1P4 EC50. The gist of the method: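 Cells expressing the receptor with promiscuous Gq/i5 are dye-loaded, equilibrated at room temperature and challenged with test compound while fluorescence is recorded by FLIPR. Potency is derived by nonlinear fitting after normalization to phospho-fingolimod.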

Experiment [3] deals with T4, human EDG1 (S1PR1) receptor (Homo sapiens, UniProt P21453).
T4 construct: expressed in transfected cells; host or cells: CHO (clone CHO-A21-Edg1 #17)
T4 sequence (P21453 whole entry): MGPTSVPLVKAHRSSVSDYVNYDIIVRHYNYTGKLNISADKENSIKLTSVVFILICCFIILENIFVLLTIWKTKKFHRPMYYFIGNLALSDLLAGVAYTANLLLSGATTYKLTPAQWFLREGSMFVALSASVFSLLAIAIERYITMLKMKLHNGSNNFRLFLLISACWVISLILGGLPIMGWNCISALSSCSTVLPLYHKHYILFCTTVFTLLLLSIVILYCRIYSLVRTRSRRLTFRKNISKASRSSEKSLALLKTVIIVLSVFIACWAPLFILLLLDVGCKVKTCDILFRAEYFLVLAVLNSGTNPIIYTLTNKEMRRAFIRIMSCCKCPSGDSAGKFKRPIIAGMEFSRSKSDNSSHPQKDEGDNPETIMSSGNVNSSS
As to the kind of experiment: Method 2: Aequorin assay, cell clone CHO-A21-Edg1 #17. It counts as cell-based. As to conditions: (2): determined with method 2; read-out: S1P1 EC50. How it is done:
as §1, §2, §3, §4, §5

For experiment [4] the following is noted: in vivo; cited from earlier work.
The conditions of experiment [5]: in vivo; cited from earlier work. The source holds these as a separate data set.
The test system of a further experiment is monocytes. The following applies: cited from earlier work.

T1 sequence (Q9H228 whole entry): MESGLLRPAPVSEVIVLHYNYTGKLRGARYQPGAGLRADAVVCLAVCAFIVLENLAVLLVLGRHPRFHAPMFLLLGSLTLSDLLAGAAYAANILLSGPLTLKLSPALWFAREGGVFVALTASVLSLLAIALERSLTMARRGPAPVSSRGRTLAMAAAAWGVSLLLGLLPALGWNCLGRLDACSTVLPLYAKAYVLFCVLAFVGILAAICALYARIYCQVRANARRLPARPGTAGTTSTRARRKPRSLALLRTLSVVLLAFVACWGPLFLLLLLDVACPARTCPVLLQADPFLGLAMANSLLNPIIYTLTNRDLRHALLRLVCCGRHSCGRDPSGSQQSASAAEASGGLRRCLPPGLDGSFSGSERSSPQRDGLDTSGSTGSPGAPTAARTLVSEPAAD

Consider `O=C(O)C1CC(N2CCc3nc(-c4ccc(OCc5cccc(F)c5)cc4)ncc3C2)C1` (centres unmarked) [Compound 52, 3-(2-(4-((3-fluorobenzyl)oxy)phenyl)-7,8-dihydropyrido[4,3-d]pyrimidin-6(5H)-yl)cyclobutanecarboxylic acid], for which the EC50 is 1000 to 10000 nM in experiment [1], over 1000 nM in experiment [2], over 1000 nM on human S1PR4 receptor and over 1000 nM in experiment [3].

Turning to `O=C(O)CCN1CCc2nc(-c3ccc(OCc4ccccc4)c(Cl)c3)ccc2C1` [Compound 144, 3-(2-(4-(benzyloxy)-3-chlorophenyl)-7,8-dihydro-1,6-naphthyridin-6(5H)-yl)propanoic acid], the EC50 in experiment [1] is 100 to 1000 nM; in experiment [2] it was over 1000 nM; in experiment [3], over 1000 nM.

Turning to `CC(CN1Cc2ccc(-c3ccc(OCc4ccccc4)cc3)nc2C1)C(=O)O` (centres unmarked) [Compound 199, 3-(2-(4-(benzyloxy)phenyl)-5H-pyrrolo[3,4-b]pyridin-6(7H)-yl)-2-methylpropanoic acid], the EC50 is 1000 to 10000 nM in experiment [1], over 1000 nM in experiment [2] and over 1000 nM in experiment [3].

In the case of `CC(CC(=O)O)N1Cc2ccc(-c3ccc(OCc4ccccc4)cc3)nc2C1` (centres unmarked) [Compound 200, 3-(2-(4-(benzyloxy)phenyl)-5H-pyrrolo[3,4-b]pyridin-6(7H)-yl)butanoic acid], the concentration for a half-maximal effect (EC50) in experiment [1] is 1000 to 10000 nM; in experiment [2] it was over 1000 nM; in experiment [3] it was over 1000 nM.

Take `O=C(O)CCN1Cc2ccc(-c3ccc(OCc4ccccc4)cc3)nc2C1` [Compound 202, 3-(2-(4-(benzyloxy)phenyl)-5H-pyrrolo[3,4-b]pyridin-6(7H)-yl)propanoic acid]: the EC50 in experiment [1] was 1000 to 10000 nM; in experiment [2], over 1000 nM; in experiment [3], over 1000 nM.

Consider `CC(CN1CCc2cc(-c3ccc(OCc4ccccc4)cc3)nnc2C1)C(=O)O` (centres unmarked) [Compound 206, 3-(3-(4-(benzyloxy)phenyl)-5,6-dihydropyrido[3,4-c]pyridazin-7(8H)-yl)-2-methylpropanoic acid], for which the EC50 in experiment [1] is 100 to 1000 nM; in experiment [2], over 1000 nM; in experiment [3] it was over 1000 nM.

With `O=C(O)CCN1CCc2cc(-c3ccc(OCc4ccccc4)cc3)nnc2C1` [Compound 207, 3-(3-(4-(benzyloxy)phenyl)-5,6-dihydropyrido[3,4-c]pyridazin-7(8H)-yl)propanoic acid], the concentration for a half-maximal effect (EC50) was 1000 to 10000 nM in experiment [1], over 1000 nM in experiment [2] and over 1000 nM in experiment [3].

Take `CCCCCCCCc1ccc(CCC(N)(CO)CO)cc1` [FTY720/FIngolimod]: the Aβ-induced memory deficits result in experiment [4] is reported as “able to modulate Aβ-induced memory deficits”. Besides, the “nociceptive behavior in neuropathic pain models” value in experiment [5] is listed as “able to reduce nociceptive behavior”. In addition, in the experiment with monocytes, the “Aβ-induced migration of monocytes to sites of injury” value is “inhibits such migration”.

Consider `FC(F)(F)c1cccc(-c2noc(-c3cc(-c4ccccc4)c(C(F)(F)F)s3)n2)c1` [SEW2817], for which the “nociceptive behavior in neuropathic pain models” value in experiment [5] was “fails to have an effect”.
